Assay results published in patent publication EP1388586A2, “Identification of broadly reactive DR restricted epitopes” (priority 1998, dated 1999).
Ends that are not written are not given here.

How the values were obtained:
[1] = biological target: T1, DRB1*0301 (DR3w17) (Homo sapiens, UniProt P01903+P01911, A100K/A102G/A103R/A169T/F55Y/I96L/K41T/L162R/M171V/P40S/Q125H/Q178H/Q39Y/R42S/S66N/T106N/T262R/W38E/Y61H); assay: Class II peptide-binding assay, DR3 (pH 4.5); settings: Table VIII, page 2; pH 4.5; read-out: In IC50 Format DR3;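 further: unlabeled peptide competing with a radiolabeled probe peptide for binding to affinity-purified HLA-DR3, IC50 regarded as an approximation of Kd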
T1 construct: used as sources of human HLA class II molecules; endogenous in cells; host or cells: MAT (EBV-transformed homozygous B cell line)
Procedure: (§1) Class II peptide-binding assays. […] These assays were chosen as to be representative of the most common DR alleles.
In appropriate stoichiometric conditions, the IC50 of an unlabeled test peptide to the purified DR is a reasonable approximation of the affinity of interaction (Kd). Peptides were tested in two to four completely independent experiments. […] Final detergent concentration in the incubation mixture was 0.05% Nonidet P-40. Assays were performed at pH 7.0 with the exception of DR3, which was performed at pH 4.5, and DRw53, which was performed at pH 5.0.
(§2) All subsequent inhibition and direct binding assays were the performed using these class II concentrations.

[2] = biological target: DRB1*0701 (DR7) (Homo sapiens, UniProt P01903+P01911, A100R/A102G/A103Q/D57E/D86V/E43K/F76Y/K127E/L162R/M171V/P40G/Q125H/Q99D/R33Q/R42Y/R54Q/S133A/S66F/T210M/V115G/Y107V/Y59L/Y89S); assay: Class II peptide-binding assay, DR7; settings: read-out: DR7 nM (In IC50 Format); purified HLA DR7;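 further: unlabeled peptides compete with an iodinated probe peptide for binding to affinity-purified HLA-DR at neutral pH, DR amount titered to bind a small tracer fraction, IC50 approximating Kd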
Procedure: as §1
(§3) Radiolabeled peptides were iodinated using the chloramine-T method. […] In appropriate stoichiometric conditions, the IC50 of an unlabeled test peptide to the purified DR is a reasonable approximation of the affinity of interaction (Kd). Peptides were tested in two to four completely independent experiments. […] Final detergent concentration in the incubation mixture was 0.05% Nonidet P-40. Assays were performed at pH 7.0 with the exception of DR3, which was performed at pH 4.5, and DRw53, which was performed at pH 5.0.
as §2

[3] = biological target: T2, DRB10404 (DR4w14) (Homo sapiens, UniProt P01903+P01911, A100R/A169T/F76Y/I96L/K127E/L162R/M171V/N62H/P40V/Q125Y/R42H/S133A/S149N/S66Y/V209L/W38E); assay: Class II peptide-binding assay, DR4w14; settings: read-out: DR4w14 nM (In IC50 Format); purified HLA DR4w14;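 further: unlabeled peptides compete with a radiolabeled probe for binding to affinity-purified HLA-DR, neutral pH, class II amount titrated to bind a small fraction of label, IC50 approximates Kd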
T2 construct: used as sources of human HLA class II molecules; endogenous in cells; host or cells: BIN40 (EBV-transformed homozygous B cell line)

[4] = biological target: T3, DRB1*0101 (DR1) (Homo sapiens, UniProt P01903+P01911, A100R/D57E/F55L/F60I/F76Y/I96L/L162R/M171V/P40L/Q125E/R42F/V115G/Y59C); assay: Class II peptide-binding assay, DR1; settings: read-out: DR1 nM (In IC50 Format); purified HLA DR1;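 further: competition assay: unlabeled test peptides inhibit binding of a radiolabeled probe peptide to purified DR, with half-maximal inhibition taken as an approximate dissociation constant Kd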
T3 construct: used as sources of human HLA class II molecules; endogenous in cells; host or cells: LG2 (EBV-transformed homozygous B cell line)
Procedure: as §1, §3, §2

[5] = biological target: T4, DRB5*0101 (DR2w2a) (Homo sapiens, UniProt P01903+Q30154); assay: Class II peptide-binding assay, DR2w2a (DR2w2B2); settings: read-out: DR2w2B2 nM (In IC50 Format); purified HLA DR2w2β2;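 further: competitive binding assay: unlabeled peptide inhibiting binding of a radiolabeled probe peptide to purified DR molecules at pH 7.0, IC50 approximating Kd, lower means stronger binding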
T4 construct: used as sources of human HLA class II molecules; endogenous in cells; host or cells: GM3107 (EBV-transformed homozygous B cell line)

[6] = biological target: T5, DRB1*0401 (DR4w4) (Homo sapiens, UniProt P01903+P01911, A100K/A169T/F76Y/I96L/K127E/L162R/M171V/N62H/P40V/Q125Y/R42H/S133A/S149N/S66Y/V115G/V209L/W38E); assay: Class II peptide-binding assay, DR4w4; settings: read-out: DR4w4 nM (In IC50 Format); purified HLA DR4w4;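 further: unlabeled test peptides compete with a radiolabeled probe peptide for binding to affinity-purified HLA-DR, with DR amount titrated to capture a small fraction of label, IC50 approximating Kd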
T5 construct: used as sources of human HLA class II molecules; endogenous in cells; host or cells: PREISS (EBV-transformed homozygous B cell line)

[7] = biological target: T6, DRB1*1101 (DR5w11) (Homo sapiens, UniProt P01903+P01911, A100R/A169T/A87E/I96F/K41T/L162R/M171V/P40S/Q125H/Q178H/Q39Y/Q99D/R42S/S66Y/T262R/V115G/W38E); assay: Class II peptide-binding assay, DR5w11; settings: read-out: DR5w11 nM (In IC50 Format); purified HLA DR5w11;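 further: competition by unlabeled test peptide against iodinated probe peptide binding to affinity-purified HLA-DR, class II amount titrated beforehand, half-maximal inhibitory concentration read as approximate Kd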
T6 construct: used as sources of human HLA class II molecules; endogenous in cells; host or cells: SWEIG (EBV-transformed homozygous B cell line)
T6 sequence (P01903 26-254, other chains not shown): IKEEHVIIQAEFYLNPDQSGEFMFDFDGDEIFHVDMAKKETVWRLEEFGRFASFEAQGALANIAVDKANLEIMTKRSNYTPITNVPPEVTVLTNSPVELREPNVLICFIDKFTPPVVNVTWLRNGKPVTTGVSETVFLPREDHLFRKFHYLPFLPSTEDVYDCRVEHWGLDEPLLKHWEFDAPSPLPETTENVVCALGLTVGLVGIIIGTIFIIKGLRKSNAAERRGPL
Procedure: as §1, §3, §2

T1 sequence (P01903 26-254, other chains not shown): as above

Molecule	IC50 [1] [nM]	IC50 [2] [µM]	IC50 [3] [nM]	IC50 [4] [nM]	IC50 [5] [nM]	IC50 [6] [nM]	IC50 [7] [nM]
CC[C@H](C)[C@H](NC(=O)[C@H](CC(N)=O)NC(=O)[C@@H](N)CCC(N)=O)C(=O)N[C@H](C(=O)N[C@@H](CCC(N)=O)C(=O)N[C@@H](CC(N)=O)C(=O)N[C@@H](CC(=O)O)C(=O)N[C@H](C(=O)NCC(=O)N[C@@H](Cc1ccccc1)C(=O)N[C@@H](Cc1ccc(O)cc1)C(=O)N[C@H](C(=O)N[C@@H](CC(C)C)C(=O)N[C@@H](Cc1c[nH]cn1)C(=O)N[C@H](C(=O)O)C(C)C)[C@@H](C)O)[C@@H](C)O)[C@@H](C)CC [Peptide 39.0313]	938						
CC[C@H](C)[C@H](NC(=O)[C@@H](NC(=O)[C@H](Cc1c[nH]cn1)NC(=O)[C@@H](N)CC(C)C)C(C)C)C(=O)N[C@@H](CCCCN)C(=O)N[C@@H](CO)C(=O)N[C@@H](CC(=O)O)C(=O)N[C@@H](CC(C)C)C(=O)N[C@H](C(=O)N[C@@H](CC(N)=O)C(=O)N[C@@H](CCC(=O)O)C(=O)N[C@@H](CCC(=O)O)C(=O)N[C@@H](C)C(=O)N[C@H](C(=O)NCC(=O)O)[C@@H](C)O)C(C)C [Peptide 39.0314]	2310						
YAAFQSQTTLKAKT-NH2 [Peptide 717.30]		4.17	7.5	8.7	105	7.6	22.2
YAEFQSQTTLKAKT-NH2 [Peptide 717.41]		25	65.8	23.8	667	32.1	38.5
YAKFQSQTTLKAKT-NH2 [Peptide 717.40]		3.57	14.3	8.8	167	4.9	8.7
YARAQSQTTLKAKT-NH2 [Peptide 717.29]		3.57	41.7	556	1820	30	20000
YARFASQTTLKAKT-NH2 [Peptide 717.56]		6.25	12.8	3.1	118	5.2	21.1
YARFASQTTLKAKT-NH2 [Peptide 782.02]		6.25	14.7	3.6	191	2.5	25.7
YARFNSQTTLKAKT-NH2 [Peptide 717.44]		5	7.4	5	80	4.2	32.8
YARFQAQTTLKAKT-NH2 [Peptide 717.55]		5	4.3	2.4	90.9	4.5	11.1
YARFQSATTLKAKT-NH2 [Peptide 717.54]		0.676	7.2	4.6	60.6	4.1	9.5
YARFQSLTTLKAKT-NH2 [Peptide 717.15]		0.961	9.4	1.2	23.8	2	5.3
YARFQSNTTLKAKT-NH2 [Peptide 717.47]		4.17	14.7	41.7	444	3.8	18.2
YARFQSQATLKAKT-NH2 [Peptide 717.53]		3.57	10.6	2	167	9.2	20
YARFQSQETLKAKT-NH2 [Peptide 717.17]		1.92	25	6	870	5.2	18.2
YARFQSQSTLKAKT-NH2 [Peptide 717.16]		3.57	8.1	6	105	1.8	4
YARFQSQTALKAKT-NH2 [Peptide 717.52]		1.14	31.3	2.2	15.4	4.6	33.3

Molecule	IC50 [1] [nM]	IC50 [2] [µM]	IC50 [3] [nM]	IC50 [4] [nM]	IC50 [5] [nM]	IC50 [6] [nM]	IC50 [7] [nM]
YARFQSQTSLKAKT-NH2 [Peptide 717.31]		0.676	10.6	4.5	143	5.1	20
YARFQSQTTAKAKT-NH2 [Peptide 717.51]		6.25	13.2	3.3	66.7	6.1	38.8
YARFQSQTTIKAKT-NH2 [Peptide 717.19]		2.08	19.2	5.7	143	3.2	30.3
YARFQSQTTKKAKT-NH2 [Peptide 717.20]		5	200	11.1	87	12.5	339
YARFQSQTTLAAKT-NH2 [Peptide 717.50]		4.17	4.3	4.2	274	3.1	20.8
YARFQSQTTLKAAT-NH2 [Peptide 717.49]		4.17	7.1	2.1	118	6.6	6.3
YARFQSQTTLKAKA-NH2 [Peptide 717.48]		6.25	5.3	1.8	40.8	2.6	5.9
YARFQSQTTLKAKE-NH2 [Peptide 717.28]		5	12.8	4.5	95.2	26.5	16.7
YARFQSQTTLKAKT [Peptide 717.67]		1.39	11.1	3.6	167	6	7.4
YARFQSQTTLKAKT-NH2 [Peptide 717.02]		2.78	18.5	2.9	125	3.7	18.9
YARFQSQTTLKART-NH2 [Peptide 717.25]		4.17	10.6	4.5	64.5	1.2	13.3
YARFQSQTTLKSKT-NH2 [Peptide 717.23]		8.33	21.7	294	215	2.8	25.3
YARFQSQTVLKAKT-NH2 [Peptide 717.32]		0.151	10.4	7.6	400	5.7	14.3
YARFQSQTYLKAKT-NH2 [Peptide 717.33]		0.641	8330	1670	256	187	1540
YERFQSQTTLKAKT-NH2 [Peptide 717.39]		8.33	16.7	18.5	800	10.7	47.6
YIAFLKQATAKLAT [Peptide 723.01]		0.0156	746	4.9	69	16.7	30.5
YSRFQSQTTLKAKT-NH2 [Peptide 717.38]		6.25	15.2	6.1	274	10	16.7
